The results in this text go back to patent US20060165731A1, “Vaccines” (British Technology Group Ltd., priority 1986, published 2006).

SMILES strings stand for the structures.

What all share (type): in vivo, Eimeria (in Cobb broiler chickens)
Experiment [1] relates to seven homologous strains of each of the seven species of Eimeria. Description: Vaccine trial in Cobb broiler chickens, homologous challenge. An excerpt: (§1) The vaccine of Example 3 was used in a trial conducted on 4,480 Cobb broiler chickens kept in floor pens. The concentration of xanthan gum in the vaccine was adjusted so that administration of 140 doses of vaccine to each drinking vessel provided a final xanthan gum concentration of 0.03%. The trial was designed to compare the performance of birds vaccinated with live attenuated coccidiosis vaccine of the invention and birds fed the coccidiostat, monensin, in the face of a challenge with seven homologous or seven heterologous strains of each of the seven species of Eimeria. The heterologous strains were chosen on the basis that they were either thought to be more pathogenic than the homologous ones or antigenically distinct.
(§2) Birds were penned in groups of 140. Four pens were allocated to each treatment and two pens were allocated to each control group. […] The allocation of pens to treatment was randomised throughout the broiler house. The design of the trial was as follows:
(§3) The vaccine was administered via the drinking water. The birds were fed a ration based on a commercial formulation which included the antibiotic growth promoter avoparcin at 10 ppm. The anticoccidial drugs were administered in the feed.
(§4) It should be noted that, in order to prevent infection by wild Eimeria strains, and consequent development of immunity, the two control groups were fed robenidine (30 ppm) for 28 days. One group received a heterologous challenge and the other received a homologous challenge.
(§5) All birds received an individual oral challenge administered by inoculation into the crop on day 31. The numbers of oocysts of each species in the challenge doses were as follows:—
(§6) Liveweights and cumulative feed intakes were measured on days 30, 37 and 49. Feed conversion ratios were calculated by dividing the feed intake by the gain in liveweight from day 1. Counts of oocysts in the litter were made for each pen at weekly intervals. On day 37, a sample of 5 birds from each pen (total 160) was culled and coccidiosis lesion scores were estimated. Scores were made on a scale of 0 to 3.5 in ascending severity of the lesions symptomatic of infection with E. acervulina, E. brunetti, E. maxima/necatrix (grouped together because they are difficult to distinguish) and E. tenella. Mean lesion scores were calculated.

Experiment [2] has as its system seven homologous or seven heterologous strains of each of the seven species of Eimeria. Description: Vaccine trial in Cobb broiler chickens, overall (homologous and heterologous challenge).
Source text: as §1, §2
The vaccine was administered via the drinking water. The birds were fed a ration based on a commercial formulation which included the antibiotic growth promoter avoparcin at 10 ppm. […]
Liveweights and cumulative feed intakes were measured on days 30, 37 and 49. Feed conversion ratios were calculated by dividing the feed intake by the gain in liveweight from day 1. […] Mean lesion scores were calculated.

Experiment [3] relates to seven heterologous strains of each of the seven species of Eimeria. In words: Vaccine trial in Cobb broiler chickens, heterologous challenge.
Source text: as §1, §2, §3, §4, §5, §6

On to `CC[C@@]1([C@@H]2O[C@@H]([C@H]3O[C@@](O)(CO)[C@H](C)C[C@@H]3C)C[C@@H]2C)CC[C@H]([C@]2(C)CC[C@]3(C[C@H](O)[C@@H](C)[C@@H]([C@@H](C)[C@@H](OC)[C@H](C)C(=O)O)O3)O2)O1` [Monensin, monensin], for which the “Mean Lesion Score E. acervulina” value in experiment [1] (Homologous challenge, day 37, scale of 0 to 3.5, control 0.2) is reported as 0; in experiment [3] (Heterologous challenge, day 37, scale of 0 to 3.5, control 0.30), 0.10. The “Mean Lesion Score E. brunetti” value in experiment [1] (Homologous challenge, day 37, scale of 0 to 3.5, control 0.40) is 0.03; in experiment [3] (Heterologous challenge, day 37, scale of 0 to 3.5, control 0.70), 0. Further, the “Mean Lesion Score E. maxima/necatrix” value in experiment [1] (Homologous challenge, day 37, scale of 0 to 3.5, control 1.25) stood at 0.13; in experiment [3] (Heterologous challenge, day 37, scale of 0 to 3.5, control 2.00) it was 0.95. Moreover, the “Mean Lesion Score E. tenella” value in experiment [1] (Homologous challenge, day 37, scale of 0 to 3.5, control 2.25) was found to be 0.20; in experiment [3] (Heterologous challenge, day 37, scale of 0 to 3.5, control 2.65), 1.53. Moreover, the LIVEWEIGHTS was 2489 g/bird in experiment [1] (day 49, Homologous Challenge on day 31, control 2225) and 2407 g/bird in experiment [3] (day 49, Heterologous Challenge on day 31, control 2197). In addition, the “Lesion scores after either homologous or heterologous challenge” value in experiment [2] (compared with controls) was “lower lesion scores”. Moreover, the “Protecting against coccidial challenge (performance of the birds, overall)” value in experiment [2] (vaccine compared with monensin) is “equally effective”. Moreover, the “Counts of oocysts in the litter, pens of monensin treated birds relative to pens of vaccinated birds” value in experiment [3] (after challenge with heterologous strains, on average, very high pen to pen variation) is “two or three times higher”. The “Lesion scores for heterologous E. maxima/necatrix” value in experiment [3] (in each case lower than the controls) is “Slightly elevated scores”.
